Assay results from PubChem BioAssay AID248 (DTP/NCI, 2004).
Values joined by “and” are separate entries in the source; they are usually repeats but may differ in a detail not shown here. Identical values can stand only once. Inconclusive results and toxic doses are left out. Rule as the data show it: active = T/C of 150% or more; inactive = T/C below 125%.

System: L1210 leukemia ip in BDF1 mice, survival T/C
Assay: NCI In Vivo Anticancer Drug Screen. Data for tumor model L1210 Leukemia (intraperitoneal) in B6D2F1 (BDF1) mice
Conditions: endpoint: mean survival time, higher = longer survival
Outline: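 Antitumor effect is assessed in tumor-bearing animals. Survival in the compound arm is compared with a vehicle-dosed control arm and expressed as their quotient.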

[1] = dose: 100.0 mg/kg/injection, schedule: Q01DX009 (ip), vehicle: Klucel (hydroxypropylcellulose) (HPC)
[2] = dose: 200.0 mg/kg/injection, schedule: Q01DX009 (ip), vehicle: Klucel (hydroxypropylcellulose) (HPC)
[3] = dose: 400.0 mg/kg/injection, schedule: Q01DX009 (ip), vehicle: Klucel (hydroxypropylcellulose) (HPC)
[4] = dose: 100.0 mg/kg/injection, schedule: Q04DX002 (ip), vehicle: saline
[5] = dose: 200.0 mg/kg/injection, schedule: Q04DX002 (ip), vehicle: saline
[6] = dose: 400.0 mg/kg/injection, schedule: Q04DX002 (ip), vehicle: saline
[7] = dose: 75.0 mg/kg/injection, schedule: Q01DX001 (ip), vehicle: saline
[8] = dose: 150.0 mg/kg/injection, schedule: Q01DX001 (ip), vehicle: saline
[9] = dose: 300.0 mg/kg/injection, schedule: Q01DX001 (ip), vehicle: saline
[10] = dose: 100.0 mg/kg/injection, schedule: Q01DX009 (ip), vehicle: saline with Tween-80
[11] = dose: 100.0 mg/kg/injection, schedule: Q04DX003 (ip), vehicle: saline with Tween-80
[12] = dose: 200.0 mg/kg/injection, schedule: Q01DX009 (ip), vehicle: saline with Tween-80
[13] = dose: 200.0 mg/kg/injection, schedule: Q04DX003 (ip), vehicle: saline with Tween-80
[14] = dose: 400.0 mg/kg/injection, schedule: Q04DX003 (ip), vehicle: saline with Tween-80
[15] = dose: 50.0 mg/kg/injection, schedule: Q01DX001 (ip), vehicle: carboxymethylcellulose (CMC)
[16] = dose: 100.0 mg/kg/injection, schedule: Q01DX001 (ip), vehicle: carboxymethylcellulose (CMC)
[17] = dose: 200.0 mg/kg/injection, schedule: Q01DX001 (ip), vehicle: carboxymethylcellulose (CMC)
[18] = dose: 400.0 mg/kg/injection, schedule: Q01DX001 (ip), vehicle: carboxymethylcellulose (CMC)
[19] = dose: 100.0 mg/kg/injection, schedule: Q04DX003 (ip), vehicle: Klucel (hydroxypropylcellulose) (HPC)
[20] = dose: 200.0 mg/kg/injection, schedule: Q04DX003 (ip), vehicle: Klucel (hydroxypropylcellulose) (HPC)
[21] = dose: 400.0 mg/kg/injection, schedule: Q04DX003 (ip), vehicle: Klucel (hydroxypropylcellulose) (HPC)

Measured: T/C

COc1ccc(C(=O)Nc2ccccc2)cc1NC(=O)NC(C)=O
inactive: [1] 97 % of control | [2] 106 % of control | [3] 100 % of control

Clc1nc2ccccc2s1
inactive: dose: 100.0 mg/kg/injection, schedule: Q01DX009 (ip), vehicle: alcohol 88 % of control | dose: 200.0 mg/kg/injection, schedule: Q01DX009 (ip), vehicle: alcohol 89 % of control

CCC1(c2ccccc2)OC1C(=O)OCCC(C)C (stereo unspecified)
inactive: [4] 93 % of control | [5] 93 % of control | [6] 101 % of control

O=S(=O)(Cl)C1c2ccccc2-c2ccccc21
inactive: dose: 100.0 mg/kg/injection, schedule: Q04DX002 (ip), vehicle: other 104 % of control | dose: 200.0 mg/kg/injection, schedule: Q04DX002 (ip), vehicle: other 96 % of control | dose: 400.0 mg/kg/injection, schedule: Q04DX002 (ip), vehicle: other 90 % of control

CC1NC(c2ccccc2)N(C(Cc2ccccc2)C(=O)O)C1=O (stereo unspecified)
inactive: dose: 50.0 mg/kg/injection, schedule: Q01DX001 (ip), vehicle: saline 94 % of control | dose: 100.0 mg/kg/injection, schedule: Q01DX001 (ip), vehicle: saline 89 % of control | dose: 200.0 mg/kg/injection, schedule: Q01DX001 (ip), vehicle: saline 99 % of control

O=C(CBr)OCS(=O)(=O)O
inactive: [7] 102 % of control | [8] 96 % of control | [9] 100 % of control

Clc1ccccc1OCC1CO1 (stereo unspecified)
inactive: [10] 93 % of control | [11] 98 % of control | [12] 100 % of control | [13] 98 % of control | dose: 400.0 mg/kg/injection, schedule: Q01DX009 (ip), vehicle: saline with Tween-80 97 % of control | [14] 103 % of control

CC(=O)Nc1ccc(NC(=O)NCCCCCCNC(=O)Nc2ccc(NC(C)=O)cc2)cc1
inactive: [1] 102 % of control | [2] 98 % of control | [3] 100 % of control

COC(=O)CCCCCCCCCCS.[Pb]
inactive: [15] 92 % of control | [16] 94 % of control | [17] 94 % of control | [18] 97 % of control

Oc1ccc(Br)cc1C=Nc1cccc(C(F)(F)F)c1
inactive: dose: 100.0 mg/kg/injection, schedule: Q04DX002 (ip), vehicle: saline with Tween-80 102 % of control | dose: 200.0 mg/kg/injection, schedule: Q04DX002 (ip), vehicle: saline with Tween-80 100 % of control | dose: 400.0 mg/kg/injection, schedule: Q04DX002 (ip), vehicle: saline with Tween-80 96 % of control

COC1CC(OCc2ccc(Br)cc2)C(COC(c2ccccc2)(c2ccccc2)c2ccccc2)O1 (stereo unspecified)
inactive: [19] 92 % of control | [20] 94 % of control | [21] 100 % of control

COc1cc(CCl)c(OC)cc1Cl
inactive: [10] 100 % of control | [11] 99 % of control | [12] 106 % of control | [13] 91 % of control | [14] 99 % of control

COc1ccc(COC2C(CO)OC(n3cnc4c(N)ncnc43)C2O)cc1 (stereo unspecified)
inactive: dose: 100.0 mg/kg/injection, schedule: Q01DX005 (ip), vehicle: saline 97 % of control | dose: 200.0 mg/kg/injection, schedule: Q01DX005 (ip), vehicle: saline 100 % of control

Nc1ccc(SCCC(=O)O)cc1
inactive: dose: 75.0 mg/kg/injection, schedule: Q01DX001 (ip), vehicle: other 96 % of control and 97 % of control | dose: 150.0 mg/kg/injection, schedule: Q01DX001 (ip), vehicle: other 105 % of control

O=C(CCl)c1cccnc1C(=O)O
inactive: dose: 25.0 mg/kg/injection, schedule: Q01DX009 (ip), vehicle: saline sonified 94 % of control | dose: 50.0 mg/kg/injection, schedule: Q01DX009 (ip), vehicle: saline sonified 91 % of control | dose: 100.0 mg/kg/injection, schedule: Q01DX009 (ip), vehicle: saline sonified 89 % of control

CCCCOP(=O)(CSCC)OCCCC
inactive: [1] 98 % of control | [2] 90 % of control | [3] 93 % of control

CCC/C(=N\NC(N)=O)C(OC)OC
inactive: dose: 100.0 mg/kg/injection, schedule: Q01DX001 (ip), vehicle: other 94 % of control | dose: 200.0 mg/kg/injection, schedule: Q01DX001 (ip), vehicle: other 105 % of control | dose: 400.0 mg/kg/injection, schedule: Q01DX001 (ip), vehicle: other 92 % of control

CC(OC(=O)CC(=O)CCl)c1ccccc1 (stereo unspecified)
inactive: dose: 100.0 mg/kg/injection, schedule: Q04DX002 (ip), vehicle: Klucel (hydroxypropylcellulose) (HPC) 102 % of control | dose: 200.0 mg/kg/injection, schedule: Q04DX002 (ip), vehicle: Klucel (hydroxypropylcellulose) (HPC) 98 % of control | dose: 400.0 mg/kg/injection, schedule: Q04DX002 (ip), vehicle: Klucel (hydroxypropylcellulose) (HPC) 87 % of control

CCCCC(O)(CCCC)CC(C)(C)C
inactive: [16] 103 % of control | [17] 92 % of control | [18] 92 % of control

O=S(=O)(OCCNc1ccccc1)c1ccccc1
inactive: [7] 101 % of control | [8] 98 % of control | [9] 98 % of control

CCCCCCCCCCCCCCCCCC(=O)NCNC(=O)CCCCCCCCCCCCCCCCC
inactive: dose: 9.37 mg/kg/injection, schedule: Q01DX009 (ip), vehicle: saline with Tween-80 92 % of control | dose: 18.75 mg/kg/injection, schedule: Q01DX009 (ip), vehicle: saline with Tween-80 90 % of control | dose: 37.5 mg/kg/injection, schedule: Q01DX009 (ip), vehicle: saline with Tween-80 86 % of control and 89 % of control | dose: 37.5 mg/kg/injection, schedule: Q04DX003 (ip), vehicle: saline with Tween-80 89 % of control | dose: 75.0 mg/kg/injection, schedule: Q04DX003 (ip), vehicle: saline with Tween-80 89 % of control | dose: 150.0 mg/kg/injection, schedule: Q04DX003 (ip), vehicle: saline with Tween-80 87 % of control

Cc1ccc(Cl)c(C(=O)C(Br)C(Br)c2ccccc2)c1 (stereo unspecified)
inactive: dose: 12.5 mg/kg/injection, schedule: Q01DX009 (ip), vehicle: saline with Tween-80 100 % of control | dose: 25.0 mg/kg/injection, schedule: Q01DX009 (ip), vehicle: saline with Tween-80 100 % of control | dose: 50.0 mg/kg/injection, schedule: Q01DX009 (ip), vehicle: saline with Tween-80 94 % of control and 100 % of control

CC12CCC(=O)C=C1CCC1C2C(O)CC2(C)C1CCC2(O)C(=O)CSc1ccc(N(CCCl)CCCl)cc1 (stereo unspecified)
inactive: dose: 100.0 mg/kg/injection, schedule: Q01DX001 (sc), vehicle: steriod suspending solution 92 % of control | dose: 200.0 mg/kg/injection, schedule: Q01DX001 (sc), vehicle: steriod suspending solution 100 % of control | dose: 400.0 mg/kg/injection, schedule: Q01DX001 (sc), vehicle: steriod suspending solution 103 % of control

CC12CCCC(O)(CC(=O)C1)C2 (stereo unspecified)
inactive: dose: 100.0 mg/kg/injection, schedule: Q01DX009 (ip), vehicle: saline 93 % of control | dose: 100.0 mg/kg/injection, schedule: Q04DX003 (ip), vehicle: acetone 95 % of control | dose: 200.0 mg/kg/injection, schedule: Q01DX009 (ip), vehicle: saline 95 % of control | dose: 200.0 mg/kg/injection, schedule: Q04DX003 (ip), vehicle: acetone 101 % of control | dose: 400.0 mg/kg/injection, schedule: Q01DX009 (ip), vehicle: saline 91 % of control | dose: 400.0 mg/kg/injection, schedule: Q04DX003 (ip), vehicle: acetone 98 % of control

COc1cc(/C=C(\C#N)c2cccc3ccccc23)cc(OC)c1OC
inactive: [19] 107 % of control | [20] 103 % of control | [21] 94 % of control

CCN(CC)Cc1ccccc1COC(=O)/C=C/c1ccccc1
inactive: [4] 108 % of control | [5] 86 % of control | [6] 108 % of control

Nc1cc(Br)cc2c1-c1ccc(Br)cc1C2
inactive: [15] 107 % of control | [16] 104 % of control | [17] 96 % of control | [18] 102 % of control
